Test results taken from patent US20250224410A1, “READY-TO-[…] FOR CHEMICAL ANALYSES AND QUANTIFICATION OF ANALYTES IN BIOLOGICAL SAMPLES” (PinPoint Testing, LLC, priority 2021, published 2025).
“Also recorded” adds a separate entry of the source.

Assays:
[1] = tested on: purified recombinant beta glucuronidase (KURA); experiment: Storage stability of analytical standards in ready-to-use test kits at −20° C. with recombinant beta-glucuronidase; type: physicochemical; details: for stability of the standard in ready-to-use kits (free drug degradant peak area normalized to codeine): kits made with suspended solid state and solid state (direct enzyme interface, urine matrix interface) technology, snap frozen at −20° C., LC-MS/MS
Method: (§1) Both (A) purified recombinant beta glucuronidase (KURA) and (B) beta glucuronidase purified from abalone tissue show similar results. Complete degradation was estimated by incubating the buprenorphine glucuronic acid standard under optimum reaction conditions for 1 hr. Negative controls were processed like that of mixed kits but excluded the respective beta-glucuronidase enzyme to measure non-specific degradation. All samples were extracted with acetonitrile prior to analysis using a liquid chromatography tandem mass spectrometry method optimized for buprenorphine. Where possible beta-glucuronidase enzyme was removed from suspended solid state, direct enzyme, and urine matrix samples prior to extraction. Acetonitrile was directly added to frozen mixed kits and negative controls to immediately degrade the beta glucuronidase enzyme. Removal of enzyme prior to extraction and the quick addition of acetonitrile limited degradation associated with sample processing and provided a better measurement of storage stability. Peak area of the degradant (free drug) was normalized to the response of codeine which was included to control for day-to-day and analytical variation. Data are presented as average±standard deviation (n=3-4). All experimental groups were manufactured and snap frozen at −20° C. prior to analysis.
(§2) Therefore, novel technology is required to stabilize process control specimens if ready-to-use formats are to be developed for analytical laboratories. Three new technologies (suspended solid state, direct enzyme interface, and urine matrix interface technology) were investigated to determine their utility in ready-to-use analytical test kit designs. While all three technologies afforded significant protection and stabilized the manufacturing process, only the suspended state and urine matrix technologies provided complete stability for 14 days in kits stored at −20° C.
(§3) The amount of degradation is independent of the source of the beta glucuronidase and remains constant for 14 days when kits are stored at −20° C. This storage temperature was selected because it is mostly commonly utilized by analytical testing laboratories. Degradation is specifically associated with manufacturing and storage because acetonitrile used for sample extraction was added immediately to frozen kits to degrade the beta-glucuronidase enzyme prior to sample processing and where possible (solid-state, direct enzyme interface, and matrix interface samples) the beta-glucuronidase enzyme was removed prior to sample extraction. These measures minimized any degradation that may have occurred during sample processing.
A 48-well plate from Innovative Labs (48 Rectangular Well U-Bottom 42.60 mm Height, 4.6 mL capacity) was formulated with various combinations of a mixture of glucuronidated drugs purchased from Cerilliant, Round Rock Texas, US (see details in table below), abalone enzyme (item #CST208) from ChemSci technologies, Belvidere IL, USA, Recombinant B-One (item #B-One-100 mL) enzyme from Kura Bioscience, buffer solution made with 5 mL of acetic acid and 7.71 g of ammonium acetate in 995 mL of pure water, and blank urine (item #OH2060) from Golden West Diagnostics.
Wells E1, F1, G1, and H1 designated as “Kura Pos. control drugs+Enz” contain the glucuronide drug standards in 50 μL DMSO mixed with […] of water and […] of Kura enzyme. The materials in this well were stored in frozen state before use.
Wells A3, B3, C3, and D3 designated as “DB pop removed Kura” contain the glucuronide drug standards in 50 μL DMSO and a suspended frozen mixture of […] of water and […] of Kura enzyme (see example 5: manufacturing process D). The materials in this well were stored in frozen state before use and the frozen enzyme and water mixture was removed prior to analysis of the well contents.

[2] = tested on: beta glucuronidase purified from abalone tissue; experiment: Storage stability of analytical standards in ready-to-use test kits at −20° C. with abalone beta-glucuronidase; type: physicochemical; details: for stability of the standard, suspended solid state technology / stability of the standard, urine matrix interface technology: up to 14 days; for stability of the standard in ready-to-use kits (free drug degradant peak area normalized to codeine): kits made with suspended solid state and solid state (direct enzyme interface, urine matrix interface) technology, snap frozen at −20° C., LC-MS/MS
Method: as §1
FIG. 5. […] Negative controls were processed like that of mixed kits but excluded the respective beta-glucuronidase enzyme to measure non-specific degradation. Since 6-MAM was directly assayed complete degradation was estimated at the limit of detection (S/N≤10) established for the liquid chromatography tandem mass spectrometry method optimized for 6-MAM detection. All samples were extracted with acetonitrile prior to analysis. Where possible beta-glucuronidase enzyme was removed from suspended solid state, direct enzyme, and urine matrix samples prior to extraction. Acetonitrile was directly added to frozen mixed kits and negative controls to immediately degrade beta glucuronidase enzyme. Removal of enzyme prior to extraction and the quick addition of acetonitrile limited degradation associated with sample processing and provided a better measurement of storage stability. Peak area of 6-MAM was normalized to the response of codeine which was included to control for day-to-day and analytical variation. Data are presented as average±standard deviation (n=3-4). All experimental groups were manufactured and snap frozen at −20° C. prior to analysis.
as §2, §3

[3] = mixed kits, snap frozen and stored at −20° C.
[4] = kits stored at −20° C., up to 14 days

CC(=O)O[C@H]1C=C[C@H]2[C@H]3Cc4ccc(O)c5c4[C@@]2(CCN3C)[C@H]1O5 [6-MAM, 6-monoacetylmorphine]
stability of the standard in kits that mix enzyme with the analytical standard [1, 3]: no 6-MAM degradation occurred
stability of the standard, direct enzyme interface technology ([2]; kits stored at −20° C.): slowed the rate of degradation but did not prevent 6-MAM degradation
stability of the standard, suspended solid state technology ([2]; kits stored at −20° C.): fully protected; also recorded: fully protects and stabilizes
stability of the standard, urine matrix interface technology ([2]; kits stored at −20° C.): slowed the rate of degradation but did not prevent 6-MAM degradation
time to significant degradation in mixed kits ([2]; mixed kits stored at −20° C.): ≤ 4 days
stability of the standard in kits that mix enzyme with the analytical standard [2, 3]: not stable
degradation during the manufacturing process (day 0) in mixed kits ([2]; snap freezing at −20° C., day 0): no degradation occurred

C[N+](C)(CCC=C1c2ccccc2CCc2ccccc21)[C@@H]1O[C@H](C(=O)[O-])[C@@H](O)[C@@H](O)[C@H]1O [amitriptyline glucuronic acid standard, Amitriptyline N-beta-D-glucuronide]
stability of the standard in ready-to-use kits (free drug degradant peak area normalized to codeine) [1]: fully protected and stabilized
stability of the standard in ready-to-use kits (free drug degradant peak area normalized to codeine) [2]: fully protected and stabilized

CO[C@]12CC[C@@]3(C[C@@H]1[C@](C)(O)C(C)(C)C)[C@H]1Cc4ccc(O[C@@H]5O[C@H](C(=O)O)[C@@H](O)[C@H](O)[C@H]5O)c5c4[C@@]3(CCN1CC1CC1)[C@H]2O5 [buprenorphine glucuronic acid standard, Buprenorphine-3-beta-D-glucuronide]
stability of the standard in ready-to-use kits (free drug degradant peak area normalized to codeine) [1]: fully protected and stabilized
stability of the standard in ready-to-use kits (free drug degradant peak area normalized to codeine) [2]: fully protected and stabilized

CN1CC[C@]23c4c5ccc(O[C@@H]6O[C@H](C(=O)O)[C@@H](O)[C@H](O)[C@H]6O)c4O[C@H]2C(=O)CC[C@H]3[C@H]1C5 [hydromorphone glucuronic acid standard, Hydromorphone 3-beta-D-glucuronide]
stability of the standard in ready-to-use kits (free drug degradant peak area normalized to codeine) [1]: fully protected and stabilized
stability of the standard in ready-to-use kits (free drug degradant peak area normalized to codeine) [2]: fully protected and stabilized

O=C1Nc2ccc(Cl)cc2C(c2ccccc2Cl)=NC1O[C@@H]1O[C@H](C(=O)O)[C@@H](O)[C@H](O)[C@H]1O (stereo partly shown) [lorazepam glucuronic acid standard, Lorazepam glucuronide]
stability of the standard in ready-to-use kits (free drug degradant peak area normalized to codeine) [1]: fully protected and stabilized
day at which complete degradation occurred, direct enzyme interface technology ([1]; kits stored at −20° C.): 14 day
day at which significant degradation was detected, direct enzyme interface technology ([1]; kits stored at −20° C.): 4 day
storage time for which the standard was protected, direct enzyme interface technology ([1]; kits stored at −20° C.): 1 day
stability of the standard, suspended solid state technology [1, 4]: fully protected
stability of the standard, urine matrix interface technology [1, 4]: fully protected
stability of the standard in ready-to-use kits (free drug degradant peak area normalized to codeine) [2]: fully protected and stabilized
day at which complete degradation occurred, direct enzyme interface technology ([2]; kits stored at −20° C.): 14 day
day at which significant degradation was detected, direct enzyme interface technology ([2]; kits stored at −20° C.): 4 day
storage time for which the standard was protected, direct enzyme interface technology ([2]; kits stored at −20° C.): 1 day
stability of the standard, suspended solid state technology ([2]; kits stored at −20° C.): fully protected
stability of the standard, urine matrix interface technology ([2]; kits stored at −20° C.): fully protected
